Data on five molecules can be found in patent US8017575B2 (priority 2004, dated 2011).

Values joined by “and” are separate entries in the source; they are usually repeats but may differ in a detail not shown here. Equal values may be shown once. Read-outs that look alike come from different tables or passages of the source.

Series [1] has as its system beta receptors. The series is described as follows: Heart rate test of beta blockade (propranolol vs isoproterenol). Format: in vivo, rat. The protocol:
Identification of Blocking Dose of […]: A standard surgical preparation, laparotomy and portal vein puncture were performed on an anesthetized rat. […] (Heart rate was measured using a Grass AC/DC Strain gauge amplifier and National Instrument data acquisition software.) Following stabilization, isoproterenol (0.5 μg/kg/min-IV) was administered at a rate of 0.1 ml/min for 5 minutes. Heart rate and glucose levels were analyzed in the last 30 seconds of isoproterenol administration and 15 minutes subsequent to discontinuation of isoproterenol infusion.

A short description of series [2]: Arterial blood glucose (glycemia) during drug infusion and hemorrhage. The format is in vivo, rat. On the procedure: (§1) After surgical completion, the animal was allowed to stabilize for 30 minutes, after which arterial blood samples (25 μl) were taken from the shunt and analyzed for blood glucose concentration using a glucose oxidase analyzer (Yellow Springs Instruments, Yellow Springs, Ohio). Samples were analyzed at five-minute intervals until 3 successive stable measurements were obtained. The mean of these 3 samples was used as the basal glucose level. […] At 45 seconds, a glucose infusion was initiated and adjusted to maintain euglycemia as determined by the basal glucose level. An arterial sample was taken from the arterial-venous shunt every 2 minutes during the RIST, and the glucose infusion was increased or decreased accordingly. […] The amount of glucose infused over the RIST (mg glucose/kg of body weight) is known as the RIST index.
(§2) Following the standard surgical procedure described above, a control RIST was performed. The anesthetized animal was hemorrhaged to an arterial blood pressure of 50 mmHg and held at this pressure for a 10 minute interval, by withdrawing additional blood as needed. Blood was not returned. The animal was hemorrhaged from the arterial side of the shunt, using a 23-gauge needle attached to a syringe, at a rate of 0.5 ml/min. Arterial blood pressure was measured from the vascular shunt during brief occlusion of the venous side of the shunt. Following the hemorrhage, arterial blood glucose levels were measured until they became stable for at least 15 minutes and another RIST was performed.
Effect of Phentolamine on HDIR following Hemorrhage: Following a standard surgical preparation, a laparotomy and portal puncture was performed. After a 30 minute stabilization period, a control RIST was performed. Following the RIST, phentolamine (400 μg/kg/min-IPV, 10 minute infusion at a rate of 0.025 ml/min), or cyclosomatostatin (20 μg/kg/min-IPV, continuous infusion at a rate of 0.025 ml/min) was administered. The rat was restabilized and then hemorrhaged to an arterial blood pressure of 50 mmHg and held at this pressure for a ten-minute interval. […]

Series [3] concerns insulin sensitivity. The series is described as follows: Rapid Insulin Sensitivity Test (RIST) before/after hemorrhage to 50 mmHg (hemorrhage-induced HDIR). The format is in vivo, rat. The protocol:
(§3) Surgical Procedures: Male Sprague Dawley rats (Charles River, St. Constant, Quebec, Canada) were housed in climate-controlled conditions for at least 6 days prior to surgical preparation. The animals were fasted for 8 hours, and then allowed ad lib access to standard rat chow for 2 hours prior to surgical preparation. […] The animals were weighed and anesthetized by an intraperitoneal injection of pentobarbital sodium (65 mg/ml, Somnotol, Biomeda-MTC Animal Health Inc., Cambridge Canada). Temperature was monitored by a rectal thermometer and kept constant at 37.5±0.5° C. by a heated surgical table and an overhead lamp. […] Animals were heparinized (100 IU/kg). Blood samples were taken by puncturing the arterial side of the arterial-venous shunt. The infusion of pharmacological agents was done by puncturing and inserting an infusion line into the silicon sleeve of the venous side of the shunt. Arterial pressure was measured by clamping the silicon sleeve on the venous side of the shunt, and measuring pressure from a side branch. A tracheotomy was performed (Micro-Renathane Tubing (095), Braintree Scientific Inc.) The left jugular vein was then cannulated with PE60 tubing in order to allow for continuous supplemental anesthetic (sodium pentobarbital, 2.16 mg/ml saline) infusion at a rate of 0.5 ml/hr/100 g of body weight. An infusion line was inserted into a silicon sleeve on the jugular supplement line for glucose administration and was controlled by a variable infusion pump (Genie, Kent Scientific Corporation, Litchfield, Mass.). The cannulation of the femoral artery and vein, the tracheotomy and the jugular vein cannulation is the standard surgical preparation.
as §1, §2
A control RIST was performed after a 30 minute stabilization period. […] A post hemorrhage RIST was then done as soon as a stable glycemic baseline had been established.
Effect of Phentolamine on HDIR following Hemorrhage: Following a standard surgical preparation, a laparotomy and portal puncture was performed. After a 30 minute stabilization period, a control RIST was performed. Following the RIST, phentolamine (400 μg/kg/min-IPV, 10 minute infusion at a rate of 0.025 ml/min), or cyclosomatostatin (20 μg/kg/min-IPV, continuous infusion at a rate of 0.025 ml/min) was administered. The rat was restabilized and then hemorrhaged to an arterial blood pressure of 50 mmHg and held at this pressure for a ten-minute interval.

The test system of series [4] is insulin sensitivity. The series is described as follows: RIST during somatostatin infusion (somatostatin-induced HDIR). The format is in vivo, rat. On the procedure: as §3, with “The cannulation of the femoral artery and vein, the tracheotomy and the jugular vein cannulation is the standard surgical preparation.” left out
After surgical completion, the animal was allowed to stabilize for 30 minutes, after which arterial blood samples (25 μl) were taken from the shunt and analyzed for blood glucose concentration using a glucose oxidase analyzer (Yellow Springs Instruments, Yellow Springs, Ohio). Samples were analyzed at five-minute intervals until 3 successive stable measurements were obtained. […] At 45 seconds, a glucose infusion was initiated and adjusted to maintain euglycemia as determined by the basal glucose level. […]

The conditions of series [5]: for Volume of Distribution, Percent Change (reduction): SMA ligation vs control. The protocol:
Following the hemorrhage, another RIST was performed. […] The samples were centrifuged and the plasma was frozen immediately on dry ice, and stored at −80° C.
A snare was inserted around the artery so that it could be occluded. The animal was allowed to rest for a 30 minute interval.

Setting [6] is: SMA ligation series, SMA ligated.
[7] abbreviates: hemorrhage series, control, insulin 50 mU/kg 30 second bolus.

As for `CC(C)NCC(O)c1ccc(O)c(O)c1` (stereo not shown) [isoproterenol], the “heart rate (remained at original baseline level)” value in series [1] (isoproterenol 0.5 μg/kg/min-IV subsequent to propranolol 1.5 mg/kg-IPV) stood at 415.3±5.9 beats/min. Moreover, the “increase in basal heart rate” value in series [1] (isoproterenol alone) is 125.2±9.8 beats/min.
For `Cc1ccc(N(CC2=NCCN2)c2cccc(O)c2)cc1` [phentolamine], the “increase in glycemia during hemorrhage” value in series [2] (phentolamine 400 μg/kg/min-IPV prior to hemorrhage (18.2±4.2% without agents)) was 1.1±0.9% and 1.1%. The “prevention of HDIR subsequent to hemorrhage” value in series [3] (Example 7: phentolamine 400 μg/kg/min-IPV) was “unable to prevent HDIR”. The “post hemorrhage RIST index” value in series [3] (Example 7: phentolamine 400 μg/kg/min-IPV prior to hemorrhage, control 213.1±8.4, n=7) is 145.4±9.2 mg of glucose/kg. Besides, the “decrease in insulin sensitivity (RIST index) between control and post hemorrhage RIST” value was 31.8% in series [3] (Example 7: phentolamine 400 μg/kg/min-IPV prior to hemorrhage, n=7); 31.8% and 31.8±5.5% in series [3] (Example 7: phentolamine 400 μg/kg/min-IPV prior to hemorrhage, n=7, listed as Phentolamine).
Regarding `CC(C)NCC(O)COc1cccc2ccccc12` (stereo not shown) [propranolol], in series [1] (propranolol 1.5 mg/kg), the “block of the acceleration in heart rate caused by isoproterenol” value is listed as “completely block”. For the same molecule, in series [1] (propranolol 1.5 mg/kg-IPV), the “reduction in basal heart rate” value was determined as 70.6±1.3 beats/min. Moreover, the “increase in glycemia following hemorrhage” value in series [2] (propranolol 1.5 mg/kg-IPV prior to hemorrhage) was 17.4±3.3% and 17.4%. In addition, in series [3] (Example 8: propranolol 1.5 mg/kg-IPV), the “prevention of HDIR subsequent to hemorrhage” value is on record as “unable to prevent HDIR”.
With cyclosomatostatin, the “increase in glycemia following hemorrhage” value in series [2] (cyclosomatostatin 20 μg/kg/min-IPV, infused 67.2±4.8 minutes) was 19.9±2.0%. Moreover, the “prevention of somatostatin-induced HDIR” value in series [4] (Example 6: cyclosomatostatin 20 μg/kg/min-IPV continuous infusion, n=3) is “significantly prevented the occurrence of HDIR”. The “cyclosomatostatin and somatostatin RIST index” value in series [4] (Example 6: cyclosomatostatin 20 μg/kg/min-IPV with somatostatin 0.16 μg/kg/min, control 215.9±7.4, n=3) is 213.1±8.6 mg of glucose/kg. The “blockade of somatostatin induced HDIR” value in series [4] (pilot studies, cyclosomatostatin 10 μg/kg/min) was “did not produce a full blockade”. Further, the “post hemorrhage RIST index” value in series [3] (Example 9: cyclosomatostatin 20 μg/kg/min-IPV continuous, started prior to hemorrhage, initial RIST 214.3±8.8, n=5) is given as 217.5±8.5 mg of glucose/kg. In series [3] (Example 9: cyclosomatostatin 20 μg/kg/min-IPV prior to hemorrhage, n=5), the “prevention of HDIR following hemorrhage” value was “prevented the occurrence of HDIR”.
Regarding “insulin: Human insulin (Humulin R) purchased from Eli Lilly”, the Clearance in series [5] (setting [6]) is 40.0 ± 1.0 mL/kg/h; in series [5] (setting [7]) it was 62.0 ± 9.0 mL/kg/h. Further, the “Volume of Distribution” value in series [5] (setting [6]) came out at 30.0 ± 3.0 mL/kg; in series [5] (setting [7]), 56.0 ± 12.0 mL/kg. Besides, the “Volume of Distribution, Percent Change (reduction)” value in series [5] is 69.4±2.2%; in series [5] (listed as Insulin) it was 69.39%. Besides, the “insulin concentration at the 1 minute mark of the RIST” value in series [5] (after hemorrhage, n=4) was 27.5 ± 3.8 µg/L. In addition, the “time for insulin to decrease to baseline” value in series [5] (both control and hemorrhage RISTs, 30 second bolus 50 mU/kg) is 5 min.
